Reference: PubChem BioAssay AID1919003 (Molecular Pharmacology Branch, DTP, NCI, 2023)

System: 786-0 complex spheroids with HUVEC/MSC, growth % test/control
Assay: Anticancer human tumor 786-0 cell line growth inhibition [AhR];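 further: compound exposure lasted seven days before the read-out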
Settings: for IC50: curve of first compound; for viability, T/C: stronger effect = lower value
From the text: Multicellular complex tumor spheroid response to aryl hydrocarbon receptor antagonists in combination with a variety of drugs and investigational agents in selected tumor cell lines
The current study was undertaken to assess response to aryl hydrocarbon receptor antagonists in combination with standard-of-care drugs and investigational agents in solid tumor complex spheroid models. Complex spheroids include a stromal component modeled by human endothelial cells (HUVEC) and fibroblasts modeled by human mesenchymal stem cells (MSCs). The concentration ranges selected for each drug and investigational agent were based upon clinically achievable concentrations if the clinical Cmax of the agent was known.
Compounds. The drugs and investigational agents: BAY 2416964 (NSC825713), GNF351 (NSC835774), CH-223191 (NSC835775), CPI-455 (NSC825282), aza-TdCyd (NSC777586), decitabine (NSC127716), belinostat (NSC758774), entinostat (NSC756642), pevonedistat (NSC761192), tazemetostat (NSC777109), talazoparib (NSC765396), olaparib (NSC753686), selinexor (NSC780203), nedisertib (M3814, NSC802822), bortezomib (NSC756655), venetoclax (NSC766270), doxorubicin (NSC123127), elimusertib (BAY189344, NSC800525), ceralasertib (AZD6738, NSC777638), TAK-243 (NSC785004), alisertib (NSC759677), etoposide (NSC141540), topotecan (NSC609699), eribulin (NSC707389), gemcitabine (NSC613327), carboplatin (NSC241240), cisplatin (NSC119875), and SN-38 (NSC673596) were obtained from the National Cancer Institute (NCI) Developmental Therapeutics Program Chemical Repository (32). The FDA-approved anticancer drug set is available from the Developmental Therapeutics Program at https://dtp.cancer.gov/organization/dscb/obtaining/available plates.htm. […] The stock solutions were prepared in dimethyl sulfoxide (DMSO, Sigma-Aldrich, St. Louis, MO, cat. D2650), except for the platinum compounds which were prepared in saline (Quality Biological, Gaithersburg, MD, cat. 114-055-101), at 800-fold the tested concentration and stored at -70 degrees C prior to their use. All drugs and investigational agents were tested over a range starting from a high concentration at or near the clinical Cmax and decreasing in half-log increments. If the clinical Cmax for an agent had not been determined, the highest concentration tested was 10 microM (Table 1).
Cell Culture. All cells were maintained in an incubator at 37 degrees C and 5% CO2 with 95% humidity. The PDC lines were cultured according to standard operating procedures established by the NCI PDMR (https://pdmr.cancer.gov). Briefly, all PDCs were thawed and cultured in Matrigel-coated flasks prepared with a working solution of 1X Ham's F-12 nutrient mix, without supplementation (Invitrogen, Waltham, MA, cat. 11765054), 100 U/mL penicillin-streptomycin (Invitrogen, cat. 15140122), and 2.5% Matrigel (Corning Inc., Corning, NY, cat. 354248) for the first three passages. All PDCs were cultured in complete DMEM/F-12 media containing advanced DMEM/F-12 (Invitrogen, cat. 12634028), 4.9% defined fetal bovine serum, heat inactivated (HyClone Laboratories Inc., Logan, UT, cat. SH30070.03HI), 389 ng/mL hydrocortisone (Sigma-Aldrich, cat. H4001), 9.7 ng/mL human EGF recombinant protein (Invitrogen, cat. PHG0313), 23.4 microg/mL adenine (Sigma-Aldrich, cat. A2786), 97.3 U/mL penicillin-streptomycin (Invitrogen, cat. 15140122), 1.9 mM L-glutamine (Invitrogen, cat. 25030081), and 9.7 microM Y-27632 dihydrochloride (Tocris Bioscience, Bristol, United Kingdom, cat. 1254). The PDCs were cultured in complete DMEM/F12 media without 10 microM Y-27632 dihydrochloride for at least two passages prior to the screen. The established cell lines NCI-H1341 and […] were cultured in DMEM/F-12, HEPES (Invitrogen, cat. 11330032), 5% defined fetal bovine serum (HyClone Laboratories Inc., cat. SH30070.03), ITS premix universal culture supplement [insulin (5 microg/mL), transferrin (5 microg/mL), and selenious acid (5 ng/mL)] […]

Nc1ncn(C2CC(O)C(CO)S2)c(=O)n1 (stereo not given) + Cc1ccccc1N=Nc1ccc(NC(=O)c2ccnn2C)c(C)c1
IC50 (second compound 0.1 µM): > 300 nM | IC50 (second compound 0.316 µM): > 300 nM | IC50 (second compound 1 µM): > 300 nM | IC50 (second compound 3.16 µM): > 300 nM | IC50 (second compound 10 µM): > 300 nM | viability, T/C (second compound 0.1 µM, first compound 0.000949 µM): 102% | viability, T/C (second compound 0.1 µM, first compound 0.003 µM): 99.8% | viability, T/C (second compound 0.1 µM, first compound 0.00949 µM): 105% | viability, T/C (second compound 0.1 µM, first compound 0.03 µM): 99.6% | viability, T/C (second compound 0.1 µM, first compound 0.0949 µM): 83.6% | viability, T/C (second compound 0.1 µM, first compound 0.3 µM): 68.7% | viability, T/C (second compound 0.316 µM, first compound 0.000949 µM): 100% | viability, T/C (second compound 0.316 µM, first compound 0.003 µM): 100% | viability, T/C (second compound 0.316 µM, first compound 0.00949 µM): 103% | viability, T/C (second compound 0.316 µM, first compound 0.03 µM): 98.2% | viability, T/C (second compound 0.316 µM, first compound 0.0949 µM): 100% | viability, T/C (second compound 0.316 µM, first compound 0.3 µM): 73.1% | viability, T/C (second compound 1 µM, first compound 0.000949 µM): 99.6% | viability, T/C (second compound 1 µM, first compound 0.003 µM): 96.5% | viability, T/C (second compound 1 µM, first compound 0.00949 µM): 112% | viability, T/C (second compound 1 µM, first compound 0.03 µM): 97.1% | viability, T/C (second compound 1 µM, first compound 0.0949 µM): 91.2% | viability, T/C (second compound 1 µM, first compound 0.3 µM): 75% | viability, T/C (second compound 3.16 µM, first compound 0.000949 µM): 93.3% | viability, T/C (second compound 3.16 µM, first compound 0.003 µM): 99.9% | viability, T/C (second compound 3.16 µM, first compound 0.00949 µM): 94% | viability, T/C (second compound 3.16 µM, first compound 0.03 µM): 101% | viability, T/C (second compound 3.16 µM, first compound 0.0949 µM): 86% | viability, T/C (second compound 3.16 µM, first compound 0.3 µM): 69.6% | viability, T/C (second compound 10 µM, first compound 0.000949 µM): 91.1% | viability, T/C (second compound 10 µM, first compound 0.003 µM): 108% | viability, T/C (second compound 10 µM, first compound 0.00949 µM): 90.8% | viability, T/C (second compound 10 µM, first compound 0.03 µM): 88.2% | viability, T/C (second compound 10 µM, first compound 0.0949 µM): 82.8% | viability, T/C (second compound 10 µM, first compound 0.3 µM): 63.4%
